Laboratory results as given in patent publication US10682371B2, “Small molecule conjugates specifically activated in tumor microenvironment for targeting and use thereof” (priority 2014, dated 2020).
Read-outs that look alike come from different tables or passages of the source.

Experiments:
[1] = system: D121 lung tumor cells; format: in vivo, C57 mice; details: Day 18
Method: 1) D121 lung tumor cells were purchased from ATCC. Cells were cultivated in DMEM culture solution containing 10% fetal bovine serum at 37° C. and 5% CO2. The cells were passaged for every three days and cells within the 15th passage were used.
2) Tumor immunization. 5×10^5 D121 lung cancer cells (purchased from ATCC) which were killed by irradiation were intraperitoneally injected to mice. The mice were injected for 3 times, once every two weeks. After immunization, mice were injected with tumor cells and the drugs were administered weekly for 4 weeks.
3) Production of tumor. At day 32, 10^6 live lung tumor cells were subcutaneously injected to the back of the C57 mice immunized by tumor. Treatment began when the tumor grew to 0.3-0.4 cm.
2) Tumor immunization. 5×10^5 D121 lung cancer cells (purchased from ATCC) which were killed by irradiation were intraperitoneally injected to mice. The mice were injected for 3 times, once every two weeks. After immunization, mice were injected with tumor cells and the drugs were administered weekly for 4 weeks. In table 16 below the immune group was immuned with D121 lung tumor cells and the group without dead D121 lung tumor cells was injected with physiological saline as controls.
3) Production of tumor. After immunization (4 weeks later), 10^6 live lung tumor cells were subcutaneously injected to the back of the C57 mice immunized by tumor. Treatment began when the tumor grew to 0.3-0.4 cm. Tumor size (mm^3) were noted and tumor inhibition rates were calculated.
2) Tumor immunization. 5×10^5 D121 lung cancer cells (purchased from ATCC) which were killed by irradiation were intraperitoneally injected to mice. The mice were injected for 3 times, once every two weeks. After immunization, mice were injected with tumor cells and the drugs were administered weekly for 4 weeks. In the table below the immune group was immuned with D121 lung tumor cells and the group without dead D121 lung tumor cells was injected with physiological saline as controls.
3) Production of tumor. At day 32, 10^6 live D121 lung tumor cells were subcutaneously injected to the back of the C57 mice immunized by tumor. Treatment began when the tumor grew to 0.3-0.4 cm.
1) D121 lung tumor cells were purposed from ATCC. Cells were cultivated in DMEM culture solution containing 10% fetal bovine serum at 37° C. and 5% CO2. The cells were passaged for every three days and cells within the 15th passage were used.

[2] = system: tumor CD8+ T cells; format: in vivo, C57 mice
Method: (§1) 4) Analysis on tumor CD8+ T cells. The tumor tissue was homogenated and individual cells in the tumor were filtered, separated and washed by buffer twice, then cultivated with the leucocyte common antigen CD45-PE and CD8-FITC marked antibodies for 1 hour at ambient temperature. The cells were washed by phosphate buffer containing 1% fetal bovine serum twice and then analyzed for the ratio of the T lymphocyte antigen (CD8) positive cells in the leucocyte common antigen (CD45) positive cells by flow cytometry.
as §1, with “CD45-PE and T-lymphocyte antigen CD8-FITC marked” for “CD45-PE and CD8-FITC marked”, “flow cytometry. Increasement of the ratio indicates increased T lymphocyte cells and thus the animal immunity against the tumor was improved.” for “flow cytometry.”
as §1, with “cytometry. Increasement of the ratio indicates increased T lymphocyte cells and thus the animal immunity against the tumor was improved.” for “cytometry.”

[3] = system: Human prostate cancer PC-3 cells / Panc-1 cells; assay: Tumor treatment in nude mice (PC-3 cells purchased, Panc-1 cells injected; Examples 22, 32, 42); format: in vivo; details: Table 38, nude mice, IV once weekly for four weeks, B1-B4 25 mg/kg, Docetaxel […]
Method: (§2) 1) Human prostate cancer PC-3 cells were purchased from American type culture collection (ATCC) and identified according the specification provided by ATCC. Cells were cultivated in DMEM culture solution containing 10% fetal bovine serum at 37° C. and 5% CO2. The cells were passaged for every three days and cells within the 15th passage were used.
2) Production of tumor. 5×10^6Panc-1 cells were subcutaneously injected to the back of the nude mice. Mice were randomly grouped after the tumor reached at least 100 mm^3. Then treatment began and the day on which the treatment began was day 1.
The control group was administered by physiological saline. Drugs were administered once weekly for four weeks.
According to the clinical application of B1, B2, B3 and B4, drugs were intravenously injected (IV). […] The control group was administered by physiological saline. Drugs were administered once weekly for four weeks.

[4] = system: Human prostate cancer PC-3 cells; assay: Tumor treatment in nude mice, PC-3 model (Example 51); format: in vivo; details: Table 48, nude mice, PC-3, IV once weekly for four weeks, D1-D4 25 mg/kg, Docetaxel […]
Method: as §2
2) Production of tumor. 5×10^6PC-3 cells were subcutaneously injected to the back of the nude mice. Mice were randomly grouped after the tumor reached at least 100 mm^3. Then treatment began and the day on which the treatment began was day 1.
According to the clinical application of D1, D2, D3 and D4, drugs were intravenously injected (IV). […]. The control group was administered by physiological saline. Drugs were administered once weekly for four weeks.

[5] = system: 4T1 cells; assay: BALB/C mice model for tumor metastasis (4T1, lung metastases); format: in vivo; details: BALB/C mice, 4T1, lung metastases day 27, IV every three days for 4 times
Method: 1) 4T1 cells were purchased from American type culture collection (ATCC) and identified according the specification provided by ATCC. Cells were cultivated in DMEM culture solution containing 10% fetal bovine serum at 37° C. and 5% CO2. The cells were passaged for every three days and cells within the 15th passage were used.
2) Production of tumor metastasis. 10^6 […] were subcutaneously injected to the back of the BALB/C mice. Mice were randomly grouped after the tumor grew to about 1.5 cm. The subcutaneous tumor was removed by surgery and drug treatment began. Mice were killed after anesthesia on day 27. The whole lung was taken out and put into Bouin's solution for staining. The number of the tumor metastasized to lung was counted with anatomical microscope.
(§3) The control group was administered by physiological saline. Drugs were administered once for every three days for 4 times.
as §3
According to the clinical application of B1, B2, B3 and B4, drugs were intravenously injected (IV). […] The control group was administered by physiological saline. Drugs were administered once for every three days for 4 times.
According to the clinical application of D1, D2, D3 and D4, drugs were intravenously injected (IV). […] The control group was administered by physiological saline. Drugs were administered once for every three days for 4 times.

[6] = system: Human breast cancer MDA-MB231 cells; format: in vivo, nude mice; details: MDA-MB231, nude mice, IV 13.2 μmol/kg once weekly for four weeks
Method: 1) Human breast cancer MDA-MB231 cells were purchased from American type culture collection (ATCC) and identified according the specification provided by ATCC. Cells were cultivated in […] (DMEM culture medium) containing 10% fetal bovine serum at 37° C. and 5% CO2. The cells were passaged for every three days and cells within the 15th passage were used.
2) Production of tumor. 5×10^6 MDA-MB231 cells were subcutaneously injected to the back of the nude mice. Mice were randomly grouped after the tumor reached at least 100 mm^3. Then treatment began and the day on which the treatment began was day 1.
3) Course of treatment. […] The drugs were administered once weekly for four weeks.
When R1 is 2-(2-Methoxyethoxy)Acetyl, and R3 is Ala, activation study and efficacy study were carried out by using compounds having different cleavable linker. The study methods are identical to those in Examples 10, 11 and 12. The in vitro activation efficiency was tested by asparagine endopeptidase and the tumor inhibition rate was tested by using human breast cancer MDA-MB231 model. […]

[7] = Table 39, immunized C57 mice, D121, drugs 13.2 μmol/kg, PDL1-antibody 5 μg/kg, weekly for 4 weeks
[8] = Table 49, immunized C57 mice, D121, drugs 13.2 μmol/kg, PDL1 antibody 5 μg/kg, weekly for 4 weeks
[9] = Table 40, B1-B4 17.6 μmol/kg, Docetaxel 3 μmol/kg
[10] = Table 50, D1-D4 25 mg/kg, Docetaxel 4.2 mg/kg
[11] = D121 immunized C57 mice, 13.2 μmol/kg weekly, PDL1 antibody 5 μg/kg where combined
[12] = D121 immunized C57 mice, 13.2 μmol/kg, ratio of CD8 positive cells in CD45 positive cells of tumor

Molecule	Inhibitory rate on tumor (%) Day 10 [6]	Size of tumor (mm^3) Day 10 [6]	Inhibitory rate on tumor (%) Day 24 [6]	Size of tumor (mm^3) Day 24 [6]	Inhibitory rate on tumor Day 18 [1, 11]	Size of tumor (mm^3) Day 18 [1, 11]	CD8: D45 (%) [2, 12]	also measured
Docetaxel [reference compound]								Size of tumor (mm^3) Day 18 [1, 7]: 1242.30 ± 359.48 mm^3; inhibitory rate on tumor % Day 18 [1, 7]: 23.33%; Size of tumor (mm^3) Day 18 [1, 8]: 1268.64 mm^3; inhibitory rate on tumor % Day 18 [1, 8]: 11.0%; CD8: CD45 (%) ([2]; Table 39, CD8 positive cells in CD45 positive cells of tumor, flow cytometry, drugs 13.2 μmol/kg, PDL1-antibody 5 μg/kg): 5.4%; CD8: CD45 (%) ([2]; Table 49, CD8 positive cells in CD45 positive cells of tumor, flow cytometry, drugs 13.2 μmol/kg, PDL1 antibody 5 μg/kg): 6.9%; Size of tumor (mm^3) Day 10 ([3]; Day 10): 254.75 ± 146.55 mm^3; inhibitory rate on tumor Day 10 ([3]; Day 10): 11.1; Size of tumor (mm^3) Day 24 ([3]; Day 24): 263.65 ± 184.67 mm^3; inhibitory rate on tumor Day 24 ([3]; Day 24): 30.7; Size of tumor (mm^3) Day 10 ([4]; Day 10): 168.66 ± 79.43 mm^3; inhibitory rate on tumor Day 10 ([4]; Day 10): 51.3; Size of tumor (mm^3) Day 24 ([4]; Day 24): 313.75 ± 157.42 mm^3; inhibitory rate on tumor Day 24 ([4]; Day 24): 57.3; Inhibitory rate on metastasis [5, 9]: 32.5; Number of metastasized tumor [5, 9]: 85 ± 17; Inhibitory rate on metastasis [5, 10]: 89.7; Number of metastasized tumor [5, 10]: 156 ± 24
CC[C@@]1(O)C(=O)OCc2c1cc1n(c2=O)Cc2cc3ccccc3nc2-1 [camptothecin]	15%	258.45 ± 57.43 mm^3	19%	847.46 ± 157.56 mm^3	34.47	889.56 ± 148.56 mm^3		CD8: CD45 (%) [2, 12]: 13.2%
CCCCCOC(=O)Nc1nc(=O)n([C@@H]2O[C@H](C)[C@@H](O)[C@H]2O)cc1F [capecitabine]	26%	225.53 ± 74.45 mm^3	9%	946.43 ± 275.86 mm^3	29.75	953.65 ± 245.43 mm^3	13.6%	
COc1cccc2c1C(=O)c1c(O)c3c(c(O)c1C2=O)C[C@@](O)(C(C)=O)C[C@@H]3O[C@H]1C[C@H](N)[C@H](O)[C@H](C)O1 [daunorubicin]	43%	174.78 ± 78.43 mm^3	17%	864.01 ± 67.45 mm^3	21.63	1063.86 ± 317.56 mm^3	13.2%	
